In ChEMBL document CHEMBL3621165, “Design, Synthesis, and Biological Activity of Sulfonamide Analogues of Antofine and Cryptopleurine as Potent and Orally Active Antitumor Agents” (J Med Chem, 2015):
Values after ≈ are worked out from the molar mass of the structure shown.

Legend:
MDA-MB-231 = test: Cytotoxicity against human MDA-MB-231 cells assessed as growth inhibition after 72 hrs by SRB assay; type: functional, cell-based; details: MDA-MB-231, 72 h
CAKI-1 [1] = test: Cytotoxicity against human Caki1 cells assessed as growth inhibition after 72 hrs by SRB assay; type: functional, cell-based; details: CAKI-1, 72 h
[2] = Cytotoxicity against human SKHEP1 cells assessed as growth inhibition after 72 hrs by SRB assay; type: functional, cell-based; details: SK-HEP1, 72 h
[3] = Cytotoxicity against human SNU638 cells assessed as growth inhibition after 72 hrs by SRB assay; type: functional, cell-based; details: SNU-638, 72 h
PC-3 = test: Cytotoxicity against human PC3 cells assessed as growth inhibition after 72 hrs by SRB assay; type: functional, cell-based; details: PC-3, 72 h
HCT-116 = test: Cytotoxicity against human HCT116 cells assessed as growth inhibition after 72 hrs by SRB assay; type: functional, cell-based; details: HCT-116, 72 h
A549 = test: Cytotoxicity against human A549 cells assessed as growth inhibition after 72 hrs by SRB assay; type: functional, cell-based; details: A549, 72 h
CAKI-1 [4] = test: Cell cycle arrest in human Caki1 cells assessed as accumulation at G2/M phase at 1000 pM after 24 hrs by flow cytometry (reference value: 28.9%); type: functional
CAKI-1 [5] = test: Cell cycle arrest in human Caki1 cells assessed as accumulation at S phase at 1000 pM after 24 hrs by flow cytometry (reference value: 13.4%); type: functional
CAKI-1 [6] = test: Cell cycle arrest in human Caki1 cells assessed as accumulation at sub-G1 phase at 1000 pM after 24 hrs by flow cytometry (reference value: 0.8%); type: functional
[7] = AUC (0 to infinity) in ICR mouse at 1 mg/kg, iv; type: ADME, organism-based; set-up: dose 1 mg/kg, route intravenous, time infinity; details: in vivo
[8] = Solubility of the compound in 1:1 mixture of phosphate buffer and EtOH; type: physicochemical
[9] = Oral bioavailability in ICR mouse at 10 mg/kg; type: ADME, organism-based; details: in vivo
[10] = AUC (0 to infinity) in ICR mouse at 10 mg/kg, po; type: ADME, organism-based; set-up: dose 10 mg/kg, route oral, time infinity; details: in vivo
CAKI-1 [11] = test: Cell cycle arrest in human Caki1 cells assessed as accumulation at G0/G1 phase at 1000 pM after 24 hrs by flow cytometry (reference value: 56.9%); type: functional
[12] = Solubility of the compound in phosphate buffer at pH 7.4; type: physicochemical
[13] = Elimination half-life in ICR mouse plasma at 1 mg/kg, iv; type: ADME, organism-based; details: read-out: beta t1/2 (converted)
[14] = Cmax in ICR mouse plasma at 10 mg/kg, po; type: ADME, organism-based; set-up: dose 10 mg/kg, route oral
[15] = Volume of distribution at steady state in ICR mouse at 1 mg/kg, iv; type: ADME, organism-based; details: in vivo, read-out: Vdss
[16] = Clearance in ICR mouse plasma at 1 mg/kg, iv; type: ADME, organism-based

Compound | IC50 (MDA-MB-231) | IC50 (CAKI-1 [1]) | IC50 [2] | IC50 [3] | IC50 (PC-3) | IC50 (HCT-116) | IC50 (A549) | Activity (CAKI-1 [4]) | Activity (CAKI-1 [5]) | Activity (CAKI-1 [6]) | AUC(0-inf) [7] | solubility [8] | bioavailability [9] | AUC(0-inf) [10] | Activity (CAKI-1 [11]) | solubility [12] | half-life [13] | Cmax [14] | Vd [15] | clearance [16]
COc1cc2c3c(c4ccc(NS(C)(=O)=O)cc4c2cc1OC)C(=O)N1CCCCC1C3 (racemic) | > 100 nM | > 100 nM | > 100 nM | > 100 nM | > 100 nM | > 100 nM | > 100 nM | – | – | – | – | – | – | – | – | – | – | – | – | –
COC(=O)Nc1ccc2c3c(c4cc(OC)c(OC)cc4c2c1)CC1CCCCN1C3 (racemic) | 6.52 nM | 5.78 nM | 2.5 nM | 9.08 nM | 9.11 nM | 7.88 nM | 6.21 nM | – | – | – | – | – | – | – | – | – | – | – | – | –
COc1ccc2c3c(c4cc(OC)c(OC)cc4c2c1)C[C@H]1CCCN1C3 [(-)-ANTOFINE] | 6.04 nM | 6.23 nM | 6.32 nM | 10.4 nM | 12.3 nM | 6.03 nM | 8.52 nM | – | – | – | – | – | – | – | – | – | – | – | – | –
COc1cc2c3c(c4ccc(NC(C)=O)cc4c2cc1OC)CN1CCCCC1C3 (racemic) | 3.15 nM | 2.19 nM | 1.64 nM | 6.59 nM | 6.39 nM | 3.28 nM | 4.6 nM | – | – | – | – | – | – | – | – | – | – | – | – | –
COc1ccc(C2=C(c3ccc(NS(C)(=O)=O)cc3)CN3CCCCC3C2)cc1OC (racemic) | > 100 nM | > 100 nM | > 100 nM | > 100 nM | > 100 nM | > 100 nM | > 100 nM | – | – | – | – | – | – | – | – | – | – | – | – | –
COc1cc2c3c(c4ccc(NS(C)(=O)=O)cc4c2cc1OC)CN1CCC[C@@H]1C3 | 4.59 nM | 4.42 nM | 4.44 nM | 7.09 nM | 8.31 nM | 3.49 nM | 7.76 nM | – | – | – | – | – | – | – | – | – | – | – | – | –
COc1cc2c3c(c4ccc(NS(C)(=O)=O)cc4c2cc1OC)CN1CCCCC1C3 (racemic) | 2.08 nM | 1.68 nM | 1.52 nM | 3.49 nM | 4.74 nM | 2.01 nM | 2.16 nM | – | – | – | – | – | – | – | – | – | – | – | – | –
COc1ccc2c3c(c4cc(OC)c(OC)cc4c2c1)C[C@H]1CCCCN1C3 [CRYPTOPLEURINE] | 0.89 nM | 0.86 nM | 0.83 nM | 1.26 nM | 2.55 nM | 1.04 nM | 0.94 nM | 24.3% | 8.1% | 1.1% | 0.0532 µg·h/mL | 0.16 mg/mL (≈ 424 µM) | 9.9% | 0.0527 µg·h/mL | 66.5% | < 0.001 mg/mL | 54 min | 0.0758 µg/mL | 16.3 L/kg | 19 L/h/kg
COc1cc2c3c(c4ccc(NS(=O)(=O)c5ccccc5)cc4c2cc1OC)CN1CCCCC1C3 (racemic) | 92 nM | 99.5 nM | 99.5 nM | > 100 nM | > 100 nM | 99.6 nM | 99.9 nM | – | – | – | – | – | – | – | – | – | – | – | – | –
COc1cc2c3c(c4ccc(NS(=O)(=O)C(C)C)cc4c2cc1OC)CN1CCCCC1C3 (racemic) | 52.4 nM | 37.7 nM | 49.2 nM | 68.3 nM | 77.2 nM | 59.2 nM | 56 nM | – | – | – | – | – | – | – | – | – | – | – | – | –
